Holding throughout (assay): NCI anticancer screen, dose series, 48 h
For assay [1], the system named is HCT-15 colon.
In assay [2] the test system is K-562 leukemia.
Assay [3] has as its system HS 578T breast.
For assay [4], the system named is RXF 393 renal.
The test system of assay [5] is RPMI-8226 leukemia.
The test system of assay [6] is OVCAR-4 ovarian.
Assay [7] relates to HOP-62 NSCLC.
Assay [8] deals with 786-0 renal.
Assay [9] relates to UO-31 renal.
The test system of assay [10] is OVCAR-5 ovarian.
Assay [11] concerns OVCAR-3 ovarian.

Consider twelve compounds from PubChem BioAssay (NCI).

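Results reflect a 48-hour exposure of cells in 96-well plates to compound at five concentrations. Here, GI50 denotes the concentration required for 50% inhibition of growth. TGI is the concentration that stops growth completely.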

Regarding `CCCC(=O)O.CCCC(=O)O.CCCC(=O)O.CCCC(=O)O.[Rh].[Rh]`, the GI50 was 0.155 µM in assay [1]; 0.026 µM in assay [2]; 0.157 µM in assay [3]; 0.0224 µM in [4]; 0.0243 µM in assay [5]. Moreover, the TGI in assay [1] is 0.762 µM; in assay [2], 0.273 µM; in assay [3], 13 µM; in assay [4] it was 0.052 µM; in assay [5], 0.112 µM.
`Cc1cc(C)nc(SCCc2cccc[n+]2C)n1`: the TGI in [1], in [6], in assay [7], in assay [8], in assay [2] and in assay [9] was greater than 100 µM throughout. Also, the TGI in assay [10], in assay [11], in [3], in assay [4] and in assay [5] was greater than 100 µM throughout.
Regarding `Br/C(=N\Nc1nn[nH]n1)c1ccncc1`, the TGI in assay [1], in assay [6], in assay [7], in assay [8], in assay [2] and in assay [10] was greater than 100 µM throughout. Also, the TGI in assay [11], in [3], in [4] and in assay [5] was greater than 100 µM in each case.
On to `CC[C@]12C=CCN3CC[C@@]4(c5cc(Br)c(OC)cc5N(C)[C@H]4[C@@](O)(C(=O)N[C@@H](Cc4ccc(O)cc4)C(=O)OC)[C@@H]1O)[C@@H]32`, for which the TGI is 76.3 µM in [1]; 40 µM in assay [6]; greater than 100 µM in assay [7]; greater than 100 µM in [8]; greater than 100 µM in assay [2]; 98.6 µM in assay [9]. Further, the TGI is greater than 100 µM in [10]; 89.7 µM in assay [11]; 54.2 µM in assay [3]; 38.4 µM in assay [4]; 36 µM in assay [5].
Regarding `COc1c(OC/C=C(\C)CCC=C(C)C)ccc2ccc(=O)oc12`, the TGI in assay [1], in assay [6], in assay [7], in [8], in assay [2] and in assay [9] was greater than 100 µM throughout. Also, the TGI in assay [10], in assay [11], in assay [3] and in assay [5] was greater than 100 µM throughout.
Take `CC(C)(C)OC(=O)NC1CCC(C(C)(C)C)CC1` (stereo not drawn): the TGI in assay [1], in assay [6], in assay [7], in assay [2], in [9] and in assay [10] was greater than 100 µM throughout. In addition, the values for the TGI in assay [11], in assay [4] and in assay [5] were greater than 100 µM, greater than 92.2 µM and greater than 100 µM, respectively.
Take `O=C(Oc1ccc(Cl)cc1[N+](=O)[O-])c1ccccc1`: the TGI in assay [1], in [6], in assay [7], in [2], in [9] and in assay [10] was greater than 100 µM each time. For the same compound, the TGI in assay [11], in assay [4] and in [5] was greater than 100 µM throughout.
Take `COc1ccc(OC)c(CC(C)N)c1` (stereo not drawn): the TGI in [1], in assay [6], in [7], in [8], in [2] and in assay [9] was greater than 100 µM throughout. Further, the TGI in [11], in assay [4] and in [5] was greater than 100 µM in each case.
`C=CCSSCC=C`: the TGI in assay [1] is greater than 100 µM; in assay [6], greater than 100 µM; in [7] it was greater than 100 µM; in assay [8], greater than 56.5 µM; in assay [2] it was greater than 100 µM; in assay [9] it was greater than 100 µM. In addition, the TGI in [10] was greater than 100 µM; in [11], greater than 100 µM; in assay [3], 97.4 µM; in [4], greater than 74 µM; in assay [5] it was greater than 80.4 µM.
As for `Cn1c2c3ccc(Cl)cc3nc-2c(Cl)c2ccccc21`, the TGI in [1] is 47.1 µM; in assay [6], 35.5 µM; in assay [7] it was 45.3 µM; in assay [8], 33.9 µM; in assay [2], greater than 100 µM; in assay [9] it was 32.6 µM. Besides, the TGI in [10] is 38.6 µM; in assay [11], 29.7 µM; in assay [3], greater than 100 µM; in assay [4] it was 36.9 µM; in assay [5] it was greater than 100 µM.
In the case of `SC1CCCN(Cc2ccccc2)C1` (stereo not drawn), the TGI in assay [1] was greater than 100 µM; in assay [6], greater than 100 µM; in [7] it was greater than 100 µM; in assay [8], greater than 100 µM; in assay [2], 60.6 µM; in assay [9], greater than 100 µM. Moreover, the TGI is greater than 100 µM in assay [10]; greater than 100 µM in [11]; greater than 100 µM in assay [3]; greater than 100 µM in assay [4]; 46.6 µM in assay [5].
Turning to `O=C(/C=C/c1ccccc1)N1CCCCC1`, the TGI in [1], in assay [6], in [7], in [8], in assay [2] and in [9] was greater than 100 µM throughout. Also, the TGI in assay [10], in assay [11], in [3], in [4] and in [5] was greater than 100 µM in each case.
